Where a name gives a salt, the structure may show the parent alone.
Columns and labels:
Format in all cases: cell-based
AP-1 = AP-1 luciferase reporter assay in HEK293 cells
Protocol: (§1) All expression plasmids were transiently transfected into HEK293 cells in a 96-well plate (0.1 μg/well) by using Effectene transfection reagent (Qiagen, Valencia, Calif.) according to the manufacturer's manual. HEK293 cells were maintained in Dulbecco's modified Eagle medium (Sigma, St. Louis, Mo.) supplemented with 10% fetal bovine serum (Atlanta Biologicals, Lawrenceville, Ga.) and incubated at 37° C. in a 5% CO2 incubator. After 24 hrs incubation, the medium was changed to DMEM with 0.2% FBS, and the transfectants were exposed to various concentrations of compound I and TPA (10 ng/ml). Cells were lysed with passive lysis buffer and the luciferase assay was performed using the Firefly-Luciferase reporter assay system (Promega, Madison, Wis.) and MLX Luminometer (Dynex Technology, Chantilly, Va.).
Three different luciferase reporter genes, AP-1 reporter containing four times TRE consensus originated from GCN4 and SRE reporter purchased from Stratagene (La Jolla, Calif.) respectively are as described previously (Suzukawa et al., Environ. Health Perspect., 2002, 110, 865-70). NFκB reporter is driven by five times NFκB responsive element inserted into Cis-reporter backbone (Stratagene, La Jolla, Calif.). Others include mouse COX-2 promoter region from −203 to +70 relative to the transcription site inserted into pTIS10L vector (Kim and Fischer, J. Biol. Chem., 1998, 273, 27686-94), human uPAR promoter region from −141 to +47 relative to transcription start site in pGL3 vector (Wang et al., Eur. J. Biochem., 2000, 267, 3248-54), and human VEGF promoter sequence from −2274 to +379 inserted into the pGL2 vector (Ding et al., J. Biol. Chem., 2006, 281, 9093-100). […]

[1] = tested on: SRE (Serum response element); test: SRE luciferase reporter assay in HEK293 cells; conditions: HEK293, TPA 10 ng/ml 18 hours
Protocol: as §1
Three different luciferase reporter genes, AP-1 reporter containing four times TRE consensus originated from GCN4 and SRE reporter purchased from Stratagene (La Jolla, Calif.) respectively are as described previously (Suzukawa et al., Environ. Health Perspect., 2002, 110, 865-70). NFκB reporter is driven by five times NFκB responsive element inserted into Cis-reporter backbone (Stratagene, La Jolla, Calif.). […]

cell proliferation = test: Cell proliferation
estrogen receptor = test: ERE promoter luciferase reporter assay in ER-positive breast cancer cells
Protocol: In order to evaluate the potential therapeutic activity of the compound, tests for the biological activity of compound I were performed. The compound is non-toxic to MCF-7, T47D, and MDA-MB-231 breast cancer cells as estimated by XTT assay at 10 μM. To determine the effects of compound I on invasion by breast cancer cell lines, a matrigel invasion assay was used. The levels of phosphorylated IκBα were confirmed in TPA treated ER-positive (MCF-7 and T47D) and ER-negative (MDA-MB-231) breast cancer cell lines and compared the levels to those after pretreatment with compound I. Although induced levels of phosphorylated IκBα varied with the cell line, IκBα phosphorylation was eliminated by compound I treatment in all three breast cancer cell lines. Compound I also produced no effect on the estrogen receptor activity in the ER-positive breast cancer cells using ERE promoter luciferase reporter assay. Invasion capacity of breast cancer cells was increased by TPA stimulation compared to DMSO treated vehicle control. […] Following anchorage-independent colony induction in TPA-treated cells without or with compound I, colonies were lysed and measured with CyQuant GR Dye to detect DNA by fluorescence plate reader as a measure of colony count. Total transformed colony numbers were calculated from RFU and cell dose curve of JB6 cells. […]

## Cc1cc(N)ccc1N=Nc1ccc(S(=O)(=O)CCOS(=O)(=O)O)cc1 [compound I, 2-(4-((4-amino-2-methylphenyl)diazenyl)phenylsulfonyl)ethyl hydrogen sulfate]
AP-1; HEK293, 1 h pretreatment, TPA 10 ng/ml 18 hrs, read-out: IC50 for inhibition of TPA induced AP-1
  IC50: 17 µM
AP-1; compound at 17.0 μM, HEK293, TPA 10 ng/ml 18 hrs
  AP-1 luciferase activity, % of the activity with TPA alone: 50%
[1]
  TPA-induced SRE luciferase activity: repressed but to a lesser degree than AP-1
Cell proliferation
  Suppression of cell proliferation: does not suppress
Estrogen receptor
  Effect on estrogen receptor activity: no effect
